According to patent publication US10597388B2, “Pyridazinone herbicides” (FMC CORPORATION, priority 2014, dated 2020):

Key:
Assay in all cases: Test E greenhouse herbicide test, pre- and postemergence
Assay type in all cases: in vivo
[1] = test system: Italian ryegrass (Lolium multiflorum)
Method in brief: (§1)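 Visual rating vs untreated controls, 0 = no effect, 100 = complete control, after 14–21 d greenhouse. Pre: seeded silt loam treated with surfactant-containing solvent formulation. Post: 1–4-leaf plants (2–18 cm) in peat/vermiculite medium.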

[2] = test system: dayflower (Virginia (VA) dayflower, Commelina virginica)
Method in brief: as §1

[3] = test system: foxtail, green (green foxtail, Setaria viridis); settings: Preemergence
Method in brief: as §1

[4] = test system: horseweed (Conyza canadensis)
Method in brief: as §1

[5] = test system: lambsquarters (Chenopodium album); settings: Preemergence
Method in brief: as §1

[6] = test system: pigweed, palmer (palmer pigweed, Amaranthus palmeri)
Method in brief: as §1

[7] = 62 g ai/ha, Preemergence, scale 0 to 100 (0 no effect, 100 complete control)
[8] = 125 g ai/ha, Preemergence, scale 0 to 100 (0 no effect, 100 complete control)
[9] = Preemergence, 31 g ai/ha, scale 0 to 100, 0 no effect, 100 complete control
[10] = Preemergence, 250 g ai/ha, visual, scale 0 no effect to 100 complete control
[11] = Preemergence, 125 g ai/ha, visual, scale 0 no effect to 100 complete control
[12] = 62 g ai/ha, scale 0 to 100 (0 no effect, 100 complete control)
[13] = 31 g ai/ha, scale 0 to 100, 0 no effect, 100 complete control
[14] = 125 g ai/ha, visual, scale 0 no effect to 100 complete control
[15] = 250 g ai/ha, visual, scale 0 no effect to 100 complete control
[16] = 62 g ai/ha, Postemergence, scale 0 to 100 (0 no effect, 100 complete control)
[17] = 125 g ai/ha, Postemergence, scale 0 to 100 (0 no effect, 100 complete control)
[18] = 250 g ai/ha, Postemergence, scale 0 to 100 (0 no effect, 100 complete control)
[19] = Postemergence, 31 g ai/ha, visual, scale 0 no effect to 100 complete control
[20] = 125 g ai/ha, scale 0 to 100 (0 no effect, 100 complete control)
[21] = Postemergence, 16 g ai/ha, visual, scale 0 no effect to 100 complete control
[22] = Preemergence, 16 g ai/ha, scale 0 to 100, 0 no effect, 100 complete control
[23] = 16 g ai/ha, scale 0 to 100, 0 no effect, 100 complete control

## Cc1ccc2ccccc2c1-c1c(O)c(I)nn(C)c1=O [Compound 29]
[1]; [7]
  Plant response rating, Ryegrass, Italian: 75
[1]; [8]
  Plant response rating, Ryegrass, Italian: 95
[1]; [9]
  Plant response rating, Ryegrass, Italian: 65
[1]; [10]
  Plant response rating, Ryegrass, Italian: 100
[2]; [7]
  Plant response rating, Dayflower, VA: 0
[2]; [9]
  Plant response rating, Dayflower, VA: 0
[2]; [11]
  Plant response rating, Dayflower, VA: 10
[2]; [10]
  Plant response rating, Dayflower, VA: 60
[3]; [12]
  Plant response rating, Foxtail, Green: 75
[3]; [13]
  Plant response rating, Foxtail, Green: 65
[3]; [14]
  Plant response rating, Foxtail, Green: 90
[3]; [15]
  Plant response rating, Foxtail, Green: 100
[4]; [7]
  Plant response rating, Horseweed: 100
[4]; [9]
  Plant response rating, Horseweed: 100
[4]; [11]
  Plant response rating, Horseweed: 100
[4]; [10]
  Plant response rating, Horseweed: 100
[5]; [12]
  Plant response rating, Lambsquarters: 100
[5]; [13]
  Plant response rating, Lambsquarters: 100
[5]; [14]
  Plant response rating, Lambsquarters: 100
[5]; [15]
  Plant response rating, Lambsquarters: 98
[6]; [7]
  Plant response rating, Pigweed, Palmer: 70
[6]; [8]
  Plant response rating, Pigweed, Palmer: 100
[6]; [9]
  Plant response rating, Pigweed, Palmer: 90
[6]; [10]
  Plant response rating, Pigweed, Palmer: 100

## Cc1cc(C)c2ccccc2c1-c1c(O)c(C)nn(C)c1=O [Compound 21]
[1]; [7]
  Plant response rating, Ryegrass, Italian: 100
[1]; [8]
  Plant response rating, Ryegrass, Italian: 100
[1]; [9]
  Plant response rating, Ryegrass, Italian: 100
[2]; [7]
  Plant response rating, Dayflower, VA: 60
[2]; [9]
  Plant response rating, Dayflower, VA: 80
[2]; [11]
  Plant response rating, Dayflower, VA: 80
[3]; [12]
  Plant response rating, Foxtail, Green: 100
[3]; [13]
  Plant response rating, Foxtail, Green: 95
[3]; [14]
  Plant response rating, Foxtail, Green: 100
[4]; [7]
  Plant response rating, Horseweed: 100
[4]; [9]
  Plant response rating, Horseweed: 100
[4]; [11]
  Plant response rating, Horseweed: 100
[5]; [12]
  Plant response rating, Lambsquarters: 100
[5]; [13]
  Plant response rating, Lambsquarters: 100
[5]; [14]
  Plant response rating, Lambsquarters: 100
[6]; [7]
  Plant response rating, Pigweed, Palmer: 70
[6]; [8]
  Plant response rating, Pigweed, Palmer: 98
[6]; [9]
  Plant response rating, Pigweed, Palmer: 65

## Cc1cc2ccccc2c(-c2c(O)c(C)nn(C)c2=O)c1C [Compound 34]
[1]; [16]
  Plant response rating, Ryegrass, Italian: 80
[1]; [7]
  Plant response rating, Ryegrass, Italian: 100
[1]; [17]
  Plant response rating, Ryegrass, Italian: 85
[1]; [8]
  Plant response rating, Ryegrass, Italian: 100
[1]; [18]
  Plant response rating, Ryegrass, Italian: 90
[1]; [19]
  Plant response rating, Ryegrass, Italian: 65
[1]; [9]
  Plant response rating, Ryegrass, Italian: 90
[1]; [10]
  Plant response rating, Ryegrass, Italian: 100
[2]; [16]
  Plant response rating, Dayflower, VA: 80
[2]; [7]
  Plant response rating, Dayflower, VA: 35
[2]; [17]
  Plant response rating, Dayflower, VA: 90
[2]; [18]
  Plant response rating, Dayflower, VA: 90
[2]; [19]
  Plant response rating, Dayflower, VA: 60
[2]; [9]
  Plant response rating, Dayflower, VA: 35
[2]; [11]
  Plant response rating, Dayflower, VA: 70
[2]; [10]
  Plant response rating, Dayflower, VA: 90
[3]; [12]
  Plant response rating, Foxtail, Green: 0
[3]; [13]
  Plant response rating, Foxtail, Green: 0
[3]; [14]
  Plant response rating, Foxtail, Green: 25
[3]; [15]
  Plant response rating, Foxtail, Green: 65
[4]; [16]
  Plant response rating, Horseweed: 75
[4]; [17]
  Plant response rating, Horseweed: 80
[4]; [18]
  Plant response rating, Horseweed: 90
[4]; [19]
  Plant response rating, Horseweed: 85
[5]; [12]
  Plant response rating, Lambsquarters: 100
[5]; [13]
  Plant response rating, Lambsquarters: 10
[5]; [14]
  Plant response rating, Lambsquarters: 100
[5]; [15]
  Plant response rating, Lambsquarters: 98
[6]; [16]
  Plant response rating, Pigweed, Palmer: 80
[6]; [7]
  Plant response rating, Pigweed, Palmer: 0
[6]; [17]
  Plant response rating, Pigweed, Palmer: 65
[6]; [8]
  Plant response rating, Pigweed, Palmer: 90
[6]; [18]
  Plant response rating, Pigweed, Palmer: 75
[6]; [19]
  Plant response rating, Pigweed, Palmer: 50
[6]; [9]
  Plant response rating, Pigweed, Palmer: 0
[6]; [10]
  Plant response rating, Pigweed, Palmer: 90

## Cc1nn(C)c(=O)c(-c2ccc(Br)c3ccccc23)c1O [Compound 75]
[1]; [16]
  Plant response rating, Ryegrass, Italian: 80
[1]; [7]
  Plant response rating, Ryegrass, Italian: 100
[1]; [17]
  Plant response rating, Ryegrass, Italian: 85
[1]; [8]
  Plant response rating, Ryegrass, Italian: 100
[1]; [18]
  Plant response rating, Ryegrass, Italian: 90
[1]; [19]
  Plant response rating, Ryegrass, Italian: 75
[1]; [9]
  Plant response rating, Ryegrass, Italian: 100
[1]; [10]
  Plant response rating, Ryegrass, Italian: 100
[2]; [16]
  Plant response rating, Dayflower, VA: 50
[2]; [7]
  Plant response rating, Dayflower, VA: 10
[2]; [17]
  Plant response rating, Dayflower, VA: 50
[2]; [8]
  Plant response rating, Dayflower, VA: 60
[2]; [18]
  Plant response rating, Dayflower, VA: 65
[2]; [19]
  Plant response rating, Dayflower, VA: 30
[2]; [9]
  Plant response rating, Dayflower, VA: 10
[2]; [10]
  Plant response rating, Dayflower, VA: 75
[3]; [12]
  Plant response rating, Foxtail, Green: 0
[3]; [20]
  Plant response rating, Foxtail, Green: 0
[3]; [13]
  Plant response rating, Foxtail, Green: 0
[3]; [15]
  Plant response rating, Foxtail, Green: 90
[4]; [16]
  Plant response rating, Horseweed: 50
[4]; [17]
  Plant response rating, Horseweed: 60
[4]; [18]
  Plant response rating, Horseweed: 50
[4]; [19]
  Plant response rating, Horseweed: 40
[5]; [12]
  Plant response rating, Lambsquarters: 100
[5]; [20]
  Plant response rating, Lambsquarters: 100
[5]; [13]
  Plant response rating, Lambsquarters: 100
[5]; [15]
  Plant response rating, Lambsquarters: 100
[6]; [16]
  Plant response rating, Pigweed, Palmer: 70
[6]; [7]
  Plant response rating, Pigweed, Palmer: 85
[6]; [17]
  Plant response rating, Pigweed, Palmer: 100
[6]; [8]
  Plant response rating, Pigweed, Palmer: 50
[6]; [18]
  Plant response rating, Pigweed, Palmer: 100
[6]; [19]
  Plant response rating, Pigweed, Palmer: 70
[6]; [9]
  Plant response rating, Pigweed, Palmer: 30
[6]; [10]
  Plant response rating, Pigweed, Palmer: 100

## Cc1ccc2sc(C)c(-c3c(OC(=O)OC(C)C)c(C)nn(C)c3=O)c2c1 [Compound 66]
[1]; [16]
  Plant response rating, Ryegrass, Italian: 40
[1]; [7]
  Plant response rating, Ryegrass, Italian: 90
[1]; [17]
  Plant response rating, Ryegrass, Italian: 50
[1]; [8]
  Plant response rating, Ryegrass, Italian: 100
[1]; [21]
  Plant response rating, Ryegrass, Italian: 20
[1]; [19]
  Plant response rating, Ryegrass, Italian: 30
[1]; [22]
  Plant response rating, Ryegrass, Italian: 40
[1]; [9]
  Plant response rating, Ryegrass, Italian: 65
[2]; [16]
  Plant response rating, Dayflower, VA: 60
[2]; [7]
  Plant response rating, Dayflower, VA: 0
[2]; [17]
  Plant response rating, Dayflower, VA: 50
[2]; [8]
  Plant response rating, Dayflower, VA: 20
[2]; [21]
  Plant response rating, Dayflower, VA: 0
[2]; [19]
  Plant response rating, Dayflower, VA: 25
[2]; [22]
  Plant response rating, Dayflower, VA: 0
[2]; [9]
  Plant response rating, Dayflower, VA: 0
[3]; [12]
  Plant response rating, Foxtail, Green: 35
[3]; [20]
  Plant response rating, Foxtail, Green: 70
[3]; [23]
  Plant response rating, Foxtail, Green: 0
[3]; [13]
  Plant response rating, Foxtail, Green: 0
[4]; [16]
  Plant response rating, Horseweed: 90
[4]; [17]
  Plant response rating, Horseweed: 90
[4]; [21]
  Plant response rating, Horseweed: 60
[4]; [19]
  Plant response rating, Horseweed: 80
[5]; [12]
  Plant response rating, Lambsquarters: 100
[5]; [20]
  Plant response rating, Lambsquarters: 100
[5]; [23]
  Plant response rating, Lambsquarters: 5
[5]; [13]
  Plant response rating, Lambsquarters: 90
[6]; [16]
  Plant response rating, Pigweed, Palmer: 60
[6]; [7]
  Plant response rating, Pigweed, Palmer: 65
[6]; [17]
  Plant response rating, Pigweed, Palmer: 80
[6]; [8]
  Plant response rating, Pigweed, Palmer: 100
[6]; [21]
  Plant response rating, Pigweed, Palmer: 50
[6]; [19]
  Plant response rating, Pigweed, Palmer: 70
[6]; [22]
  Plant response rating, Pigweed, Palmer: 0
[6]; [9]
  Plant response rating, Pigweed, Palmer: 0
